Measurements taken from US10065972B2, “Bicyclic or tricyclic heterocyclic compound” (MITSUBISHI TANABE PHARMA CORPORATION, priority 2014, dated 2018).

Target: human recombinant KAT-II (Homo sapiens (Human), UniProt Q8N5Z0)
Assay: KAT-II inhibitory test
Type: biochemical
Details: 3.0 μmol/L kynurenine, 37° C., 1 hr, pH 8.0; kynurenic acid quantified by HPLC
Description: The compounds described in the above-mentioned Examples were used for the KAT-II inhibitory test.
Preparation of Human Recombinant KAT-II
Human recombinant KAT-II was prepared as follows.
His tag and maltose binding protein tag were added to the N-terminal of a gene encoding human KAT-II (Genbank accession number: AF481738.1), and the obtained gene was incorporated into pET32 (Merck Nihon Millipore), which is an Escherichia coli expression vector. Human recombinant KAT-II produced by BL21(DE3) Escherichia coli (Merck Nihon Millipore, 69450) transformed using the plasmid was purified using an amylose resin column (New England Biolabs, #800-21 L).
The inhibitory action of the test compound on human recombinant KAT-II was determined by the following method.
To a reaction mixture (45 μL) containing 3.0 μmol/L kynurenine, 10 μmol/L pyridoxal phosphate, 2.0 ng/μL human recombinant KAT-II, and 150 mmol/L tris(hydroxymethyl)aminomethane-acetate buffer (pH 8.0) was added a 10% dimethyl sulfoxide solution (5 μL) of each test compound prepared, and the mixture was reacted at 37° C. for 1 hr. After the reaction, 50% trichloroacetic acid (5 μL) was added to terminate the reaction.
The resultant kynurenic acid was quantified as follows by high performance liquid chromatography. An enzyme reaction mixture was separated by an octadecylsilane reversed-phase column (SC-50DS, Eicom Corporation; mobile phase: 250 mmol/L zinc acetate, 50 mmol/L sodium acetate, and 5.0% acetonitrile (pH 6.2)) incubated at 30° C., and kynurenic acid was quantified using a fluorescence detector (RF-20Axs, Shimadzu Corporation) at excitation wavelength 354 nm, detection wavelength 460 nm. The analytical curve was drawn every time by an external standard method. Each test compound was tested by dual measurement at each concentration.

Sequence of human recombinant KAT-II (Q8N5Z0 30-425): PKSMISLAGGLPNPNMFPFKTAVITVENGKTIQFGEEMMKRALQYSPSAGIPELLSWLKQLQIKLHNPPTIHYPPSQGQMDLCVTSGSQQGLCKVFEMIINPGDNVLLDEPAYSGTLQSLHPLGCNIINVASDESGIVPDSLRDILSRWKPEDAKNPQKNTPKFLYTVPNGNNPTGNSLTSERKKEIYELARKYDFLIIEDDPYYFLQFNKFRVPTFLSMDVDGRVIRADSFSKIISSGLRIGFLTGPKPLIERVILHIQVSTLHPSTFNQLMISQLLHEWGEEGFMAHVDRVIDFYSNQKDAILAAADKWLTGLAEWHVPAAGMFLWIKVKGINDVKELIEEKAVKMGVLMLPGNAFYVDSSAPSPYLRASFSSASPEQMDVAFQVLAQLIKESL

| IC50 | Compound |
| --- | --- |
| 0.037 µM | Cc1cccc(CC(=O)N2CCC[C@@H]2c2nc3c(=O)[nH]c(C4(C(F)(F)F)CC4)nc3s2)c1 [Example 98, 2-{(R)-1-[2-(3-methylphenyl)acetyl]pyrrolidin-2-yl}-5-[1-(trifluoromethyl)cyclopropyl]-6H-[1,3]thiazolo[5,4-d]pyrimidin-7-one] |
| 0.073 µM | CC1(Oc2nc3sc([C@H]4CCCN4C(=O)Oc4ccccc4)nc3c(=O)[nH]2)CC1 [Example 104, (R)-2-[5-(1-methylcyclopropoxy)-7-oxo-6,7-dihydro[1,3]thiazolo[5,4-d]pyrimidin-2-yl]pyrrolidine-1-carboxylic acid phenyl ester] |
| 0.065 µM | O=C(Oc1ccccc1)N1CCC[C@@H]1c1nc2c(=O)[nH]c(OCC(F)(F)F)nc2s1 [Example 105, (R)-2-[7-oxo-5-(2,2,2-trifluoroethoxy)-6,7-dihydro[1,3]thiazolo[5,4-d]pyrimidin-2-yl]pyrrolidine-1-carboxylic acid phenyl ester] |
| 0.046 µM | O=C(Oc1ccccc1)N1CCC[C@@H]1c1nc2c(=O)[nH]c(N3CCCCC3)nc2s1 [Example 107, (R)-2-[7-oxo-5-(piperidin-1-yl)-6,7-dihydro[1,3]thiazolo[5,4-d]pyrimidin-2-yl]pyrrolidine-1-carboxylic acid phenyl ester] |
| 0.014 µM | CC1(c2nc3sc([C@H]4CCCN4C(=O)Oc4ccccc4)nc3c(=O)[nH]2)COC1 [Example 116, (R)-2-[5-(3-methyloxetan-3-yl)-7-oxo-6,7-dihydro[1,3]thiazolo[5,4-d]pyrimidin-2-yl]pyrrolidine-1-carboxylic acid phenyl ester] |
| 0.11 µM | CC(C)(F)c1nc2sc(N3CCCN3C(=O)Oc3ccccc3)nc2c(=O)[nH]1 [Example 131, 2-[5-(2-fluoropropan-2-yl)-7-oxo-6,7-dihydro[1,3]thiazolo[5,4-d]pyrimidin-2-yl]pyrazolidine-1-carboxylic acid phenyl ester] |
| 0.051 µM | Cc1cccc(OC(=O)N2CCCN2c2nc3c(=O)[nH]c(C(C)(C)F)nc3s2)c1 [Example 132, 2-[5-(2-fluoropropan-2-yl)-7-oxo-6,7-dihydro[1,3]thiazolo[5,4-d]pyrimidin-2-yl]pyrazolidine-1-carboxylic acid 3-methylphenyl ester] |

Second part, the molecule before the results:

| Compound | IC50 |
| --- | --- |
| CN(C)c1nc2sc([C@H]3CCCN3C(=O)Oc3ccccc3)nc2c(=O)[nH]1 [Example 106, (R)-2-[5-(N,N-dimethylamino)-7-oxo-6,7-dihydro[1,3]thiazolo[5,4-d]pyrimidin-2-yl]pyrrolidine-1-carboxylic acid phenyl ester] | 0.069 µM |
| CCc1nc2sc([C@H]3CCCN3C(=O)Oc3ccccc3)nc2c(=O)n1Cc1ccc(OC)cc1OC [Example 111, (R)-2-[6-(2,4-dimethoxybenzyl)-5-ethyl-7-oxo-6,7-dihydro[1,3]thiazolo[5,4-d]pyrimidin-2-yl]pyrrolidine-1-carboxylic acid phenyl ester] | 0.27 µM |
| CCc1nc2sc([C@H]3CCCN3C(=O)Oc3ccccc3)nc2c(=O)[nH]1 [Example 114, (R)-2-(5-ethyl-7-oxo-6,7-dihydro[1,3]thiazolo[5,4-d]pyrimidin-2-yl)pyrrolidine-1-carboxylic acid phenyl ester] | 0.029 µM |
| Cc1noc(-c2nc3sc([C@H]4CCCN4C(=O)Oc4ccccc4)nc3c(=O)[nH]2)n1 [Example 120, (R)-2-[5-(3-methyl-[1,2,4]oxadiazol-5-yl)-7-oxo-6,7-dihydro[1,3]thiazolo[5,4-d]pyrimidin-2-yl]pyrrolidine-1-carboxylic acid phenyl ester] | 0.0047 µM |
| CC(C)(F)c1nc2sc(N3CCCN3C(=O)Cc3ccccc3)nc2c(=O)[nH]1 [Example 133, 5-(2-fluoropropan-2-yl)-2-[2-(phenylacetyl)pyrazolidin-1-yl]-6H-[1,3]thiazolo[5,4-d]pyrimidin-7-one] | 0.15 µM |
| Cc1cccc(CC(=O)N2CCCN2c2nc3c(=O)[nH]c(C(C)(C)F)nc3s2)c1 [Example 134, 5-(2-fluoropropan-2-yl)-2-{2-[2-(3-methylphenyl)acetyl]pyrazolidin-1-yl}-6H-[1,3]thiazolo[5,4-d]pyrimidin-7-one] | 0.23 µM |
